The text below walks through data of ChEMBL document CHEMBL1641404 (Bioorg Med Chem Lett, 2011).

What all share (assay type): ADME, organism-based
The nature of data set [1]: Half life in Sprague-Dawley rat 1 mg/kg, iv. The arrangement: dose 1 mg/kg, route intravenous. The conditions noted are these: in vivo.
Data set [2] is described as follows: Half life in CD-1 mouse 1 mg/kg, iv. The arrangement: dose 1 mg/kg, route intravenous. The conditions noted are these: in vivo.
The nature of data set [3]: AUC (0 to t) in Sprague-Dawley rat 1 mg/kg, iv. Details: dose 1 mg/kg, route intravenous. The conditions noted are these: plasma.
The nature of data set [4]: AUC (0 to t) in CD-1 mouse 1 mg/kg, iv. Details: dose 1 mg/kg, route intravenous. The conditions noted are these: plasma.
A short description of data set [5]: Volume of distribution in Sprague-Dawley rat 1 mg/kg, iv. Details: dose 1 mg/kg, route intravenous. The conditions noted are these: in vivo.
The nature of data set [6]: Volume of distribution in CD-1 mouse 1 mg/kg, iv. The arrangement: dose 1 mg/kg, route intravenous. The conditions noted are these: in vivo.
The nature of data set [7]: Clearance in Sprague-Dawley rat 1 mg/kg, iv. Details: dose 1 mg/kg, route intravenous. The conditions noted are these: in vivo.
Data set [8] is described as follows: Clearance in CD-1 mouse 1 mg/kg, iv. The arrangement: dose 1 mg/kg, route intravenous. The conditions noted are these: in vivo.
The subject of data set [9] is Rattus norvegicus. As to the kind of experiment: Cmax in Sprague-Dawley rat 5 mg/kg, po. Details: dose 5 mg/kg, route oral. The conditions noted are these: in vivo.
Data set [10] deals with Mus musculus. As to the kind of experiment: Cmax in CD-1 mouse 10 mg/kg, po. Details: dose 10 mg/kg, route oral. The conditions noted are these: in vivo.
A short description of data set [11]: Tmax in Sprague-Dawley rat 5 mg/kg, po. The arrangement: dose 5 mg/kg, route oral. The conditions noted are these: in vivo.
Data set [12] can be described thus: Tmax in CD-1 mouse 10 mg/kg, po. Details: dose 10 mg/kg, route oral. The conditions noted are these: in vivo.
Data set [13] can be described thus: Half life in CD-1 mouse 10 mg/kg, po. Details: dose 10 mg/kg, route oral. The conditions noted are these: in vivo.
Data set [14] in a line: AUC (0 to t) in Sprague-Dawley rat 5 mg/kg, po. The arrangement: dose 5 mg/kg, route oral. The conditions noted are these: plasma.
Data set [15] can be described thus: AUC (0 to t) in CD-1 mouse 10 mg/kg, po. Details: dose 10 mg/kg, route oral. The conditions noted are these: plasma.
The nature of data set [16]: Oral bioavailability in Sprague-Dawley rat 5 mg/kg. The conditions noted are these: in vivo.
The nature of data set [17]: Oral bioavailability in CD-1 mouse 10 mg/kg. The conditions noted are these: in vivo.
Data set [18] can be described thus: Plasma concentration in mouse bearing ALK-positive tumor xenografts at 30 mg/kg, po up to 12 hrs. The arrangement: dose 30 mg/kg, route oral.

For orientation: half-life means how long it takes for the measured level to halve. The low end stands for fast loss, the high end for slow loss. By AUC(0-t) is commonly meant exposure summed from dosing to a finite time, without extrapolation to infinity. A higher AUC(0-t) goes with high exposure. The term Vd denotes the apparent volume that relates the amount in the body to the concentration in plasma or blood. The low end stands for confinement near the circulation, the high end for extensive tissue distribution. A word on the clearance: it is the volume of plasma or blood freed of the substance per unit of time. Higher therefore signals efficient removal. One may read the Cmax as the highest concentration seen after dosing. What is called Tmax is the time at which the peak concentration occurs. The bioavailability is the share of a dose that reaches the circulation, judged against a reference dose that is usually intravenous. High values mean much systemic uptake, low ones little systemic uptake. For `COc1cc2c(cc1Nc1ncc(Cl)c(Nc3ccc(N4CCOCC4)cc3OC)n1)CCN(CC(=O)N(C)C)CC2`, the half-life in [1] is 48 min; in [2], 42 min; in [13] it was 186 min. For the same compound, the AUC(0-t) in data set [3] turned out to be 1020 ng·h/mL; in [4], 830 ng·h/mL; in data set [14], 1400 ng·h/mL; in data set [15], 3900 ng·h/mL. The results for the Vd in data set [5] and in [6] were 1.1 L/kg and 1.2 L/kg, respectively. For the same compound, the clearance in data set [7] turned out to be 16 mL/min/kg; in data set [8], 20 mL/min/kg. For the same compound, the results for the Cmax in [9] and in data set [10] were 306 ng/mL and 1190 ng/mL, respectively. Further, the time to peak (Tmax) in [11] worked out at 198 min; in [12] it was 30 min. For the same compound, the results for the bioavailability in data set [16] and in [17] were 30% and 64%, respectively. This compound showed a concentration at 12 h in [18] of 3000 nM.
